Results reported in US20220378802A1, “TREATMENT OF ALCOHOLIC HEPATITIS” (Durect Corporation, priority 2019, published 2022).
Entries after “also recorded” stand apart in the source; their conditions may differ. Read-outs that look alike come from different tables or passages of the source.

Columns and labels:
[1] = Pharmacokinetics of 25HC3S in alcoholic hepatitis patients (Phase 2a, IV infusion); assay type: in vivo, human; details: for PK parameters, moderate versus severe AH groups: comparison at the same dose; for half-life / clearance / Tmax / AUC(0-inf) / Cmax: human, plasma
Method: All patients received IV infused 25HC3S (at 30, 90, or 150 mg) on Day 1 and Day 4 (if still hospitalized), and were followed for 28-days. The final enrollment was 19 patients comprised of: 8 patients (4 moderate and 4 severe) dosed at 30 mg, 7 patients (3 moderate and 4 severe) dosed at 90 mg, and 4 patients (4 severe) dosed at 150 mg. • Study Drug A 25HC3S sodium salt solution contained: • 30 mg/mL 25HC3S sodium salt; • 240 mg/mL hydroxypropyl-beta-cyclodextrin; and • 50 mmole phosphate buffer • The 25HC3S sodium salt solution was diluted in 100 mL 5% dextrose or 0.9% sodium chloride infusion solution: • Dose 1: 30 mg of 25HC3S sodium salt in 100 mL 5% dextrose or 0.9% sodium chloride • Dose 2: 90 mg of 25HC3S sodium salt in 100 mL 5% dextrose or 0.9% sodium chloride • Dose 3: 150 mg of 25HC3S sodium salt in 100 mL 5% dextrose or 0.9% sodium chloride • 25HC3S sodium salt was administered by slow intravenous infusion over 2 hrs (50 mL/h) until the entire dose is given at Day 1 and Day 4. If a patient met the hospital discharge criteria prior to the second dose, the patient received only one dose instead of two doses. • Study Procedure The study was conducted in two parts. Part A included patients with MELD scores of 11-20 (moderate AH patients), and Part B included patients with MELD of scores 21-30. The doses of 25HC3S sodium salt administered were 30 mg and 90 mg for Part A and 30 mg, 90 mg and 150 mg for Part B, with 4 patients per dose group per Part (except for only 3 patients in the 90 mg cohort of Part A). All patients were followed to Day 28. • The study started in 4 moderate AH patients (Part A) at 30 mg dose level. After completing the dosing, a Dose Escalation Committee (DEC) reviewed safety, tolerability and pharmacokinetic (PK) data from all 4 patients and determined that it was safe to move forward to dose 4 severe AH patients (Part B) at the same dose level, 30 mg, as well as escalating the dose level to 90 mg in moderate patients (Part A). The same dose escalation procedure was then conducted in Part B until all 4 patients received 150 mg doses. • A flow diagram of the study is depicted in FIG. 2. Each dose cohort enrolled up to 4 subjects. Study subjects received up to 2 doses of 25HC3S sodium salt. The first dose was administered on Day 1 and, if still hospitalized, the second dose was administered on Day 4. A pharmacokinetic (PK) sample was collected at: Time 0 (pre-dose), 1 hour post-dose initiation, 2 hours (end of infusion), 3 hours post-dose initiation, 4 hours post-dose initiation, 8 hours post-dose initiation, 12 hours post-dose initiation, 24-hours post-dose initiation and 50 hours post-dose initiation. • Evaluation: Assessment of Pharmacodynamic (PD) Signals: • Change in Lille score, MELD score, biochemistry (such as bilirubin) • Method and Timing • Lille score was calculated at Day 7 • MELD score was calculated at Screening, Day 1 (pre-dose), Day 7 and Day 28 • Biochemistry and all safety lab parameters were collected at Screening, Day 1 and Day 4 at pre-dose, Day 1 and Day 4 at 12 hrs after dose completion/end of infusion, Day 2, Day 7, Day 28, and if hospitalized on Days 3, 4, 5, and 6. • Assessment of Safety Signals: • Safety was determined based on clinical and laboratory monitoring. • Assessment of PK: • Plasma concentration data of 25HC3S from each patient were used to calculate relevant PK parameters determined using a standard linear/log-trapezoidal rule non-compartmental method with an appropriate PK data analysis program. • The time points for PK sample collection were (after Dose 1 only): 0 (pre-dose), 1 hr post-dose initiation, 2 hrs (end of infusion), 3, 4, 8, 12, 24 hrs post-dose

[2] = system: patients with alcoholic hepatitis; assay: Safety and tolerability in Phase 2a trial; assay type: in vivo, human; details: all AH patients
Method: All patients received IV infused 25HC3S (at 30, 90, or 150 mg) on Day 1 and Day 4 (if still hospitalized), and were followed for 28-days. The final enrollment was 19 patients comprised of: 8 patients (4 moderate and 4 severe) dosed at 30 mg, 7 patients (3 moderate and 4 severe) dosed at 90 mg, and 4 patients (4 severe) dosed at 150 mg. • Study Drug A 25HC3S sodium salt solution contained: • 30 mg/mL 25HC3S sodium salt; • 240 mg/mL hydroxypropyl-beta-cyclodextrin; and • 50 mmole phosphate buffer • The 25HC3S sodium salt solution was diluted in 100 mL 5% dextrose or 0.9% sodium chloride infusion solution: • Dose 1: 30 mg of 25HC3S sodium salt in 100 mL 5% dextrose or 0.9% sodium chloride • Dose 2: 90 mg of 25HC3S sodium salt in 100 mL 5% dextrose or 0.9% sodium chloride • Dose 3: 150 mg of 25HC3S sodium salt in 100 mL 5% dextrose or 0.9% sodium chloride • 25HC3S sodium salt was administered by slow intravenous infusion over 2 hrs (50 mL/h) until the entire dose is given at Day 1 and Day 4. If a patient met the hospital discharge criteria prior to the second dose, the patient received only one dose instead of two doses. • Study Procedure The study was conducted in two parts. Part A included patients with MELD scores of 11-20 (moderate AH patients), and Part B included patients with MELD of scores 21-30. The doses of 25HC3S sodium salt administered were 30 mg and 90 mg for Part A and 30 mg, 90 mg and 150 mg for Part B, with 4 patients per dose group per Part (except for only 3 patients in the 90 mg cohort of Part A). All patients were followed to Day 28. • The study started in 4 moderate AH patients (Part A) at 30 mg dose level. After completing the dosing, a Dose Escalation Committee (DEC) reviewed safety, tolerability and pharmacokinetic (PK) data from all 4 patients and determined that it was safe to move forward to dose 4 severe AH patients (Part B) at the same dose level, 30 mg, as well as escalating the dose level to 90 mg in moderate patients (Part A). […]

[3] = AH vs healthy subjects, 150 mg, ↑
[4] = AH vs healthy subjects, 150 mg, ↓
[5] = iv, 30 mg, Moderate AH, cohort 1A, 30 mg IV infusion, N=3
[6] = iv, 30 mg, Severe AH, cohort 1B, 30 mg IV infusion, N=4
[7] = iv, 90 mg, Moderate AH, cohort 2A, 90 mg IV infusion, N=3
[8] = iv, 90 mg, Severe AH, cohort 2B, 90 mg IV infusion, N=4
[9] = iv, 150 mg, Severe AH, cohort 3B, 150 mg IV infusion, N=4
[10] = same dose level, single dose of 150 mg

For `C[C@H](CCCC(C)(C)O)[C@H]1CC[C@H]2[C@@H]3CC=C4C[C@@H](OS(=O)(=O)O)CC[C@]4(C)[C@H]3CC[C@]12C` [25HC3S, 5-cholesten-3,25-diol, 3-sulfate], the “drug exposure (AUC and Cmax) versus dose” value ([1]; AH patients, 30, 90, 150 mg) was “dose proportional”, the “Time to maximum drug concentrations (Tmax)” value ([1]; AH patients, 2 hour IV infusion) was “at the end of 2 hour infusion” and the “Fold Change in PK: AUCinf” value [1, 3] was “↑ ~5×”. For the same compound, the “Fold Change in PK: Cmax” value [1, 3] was “↑ 2×”, the “Fold Change in PK: T½” value [1, 3] was “↑ 2×” and the “Fold Change in PK: CL” value [1, 4] was “↓ 0.25×”. The “Fold Change in PK: V” value [1, 4] was “↓ 0.5×”, the V ([1]; Moderate AH, cohort 1A, 30 mg IV infusion, N=3) was 24.8 (1.6) L and the V ([1]; Moderate AH, cohort 2A, 90 mg IV infusion, N=3) was 25.8 (10.5) L. The V ([1]; Severe AH, cohort 1B, 30 mg IV infusion, N=4) was 26.1 (4.9) L, the V ([1]; Severe AH, cohort 2B, 90 mg IV infusion, N=4) was 35.3 (10.8) L and the V ([1]; Severe AH, cohort 3B, 150 mg IV infusion, N=4) was 27.8 (5.9) L. The “PK parameters, moderate versus severe AH groups” value [1] was “uninfluenced by the severity of the disease; also recorded: similar”, the “PK parameters, moderate versus severe AH groups” value ([1]; listed as 25HC3S sodium) was “similar” and the “systemic clearance, fold lower in AH patients compared to healthy subjects” value ([1]; for a given dose) was “about 5 fold”. The “decrease of clearance in AH patients compared to healthy subjects” value ([1]; healthy subjects from an earlier study) was 80%, the half-life ([1]; intravenous, AH patients, range over groups, read-out: half-life (t1/2)) was 4 to 6 h and the clearance ([1]; intravenous, AH patients, read-out: Mean clearance) was 83.3 to 117 mL/min. The Tmax ([1]; iv, 30 mg, Moderate AH, cohort 1A, 30 mg IV infusion over 2 h, after Dose 1, N=3) was 2.2 h, the AUC(0-inf) [1, 5] was 6540 ng·h/mL and the Cmax [1, 5] was 1280 ng/mL. The clearance ([1]; iv, 30 mg, Moderate AH, cohort 1A, 30 mg IV infusion, N=3, read-out: CL (converted)) was 98.3 mL/min, the half-life ([1]; iv, 30 mg, Moderate AH, cohort 1A, 30 mg IV infusion, N=3, read-out: T½ (converted)) was 3.7 h and the AUC(0-inf) [1, 6] was 7720 ng·h/mL. The Cmax [1, 6] was 1340 ng/mL, the Tmax [1, 6] was 1.8 h and the clearance ([1]; iv, 30 mg, Severe AH, cohort 1B, 30 mg IV infusion, N=4, read-out: CL (converted)) was 68.3 mL/min. The half-life ([1]; iv, 30 mg, Severe AH, cohort 1B, 30 mg IV infusion, N=4, read-out: T½ (converted)) was 1.8 h, the AUC(0-inf) [1, 7] was 14300 ng·h/mL and the Cmax [1, 7] was 3630 ng/mL. It also gave a Tmax [1, 7] of 2 h, a clearance ([1]; iv, 90 mg, Moderate AH, cohort 2A, 90 mg IV infusion, N=3, read-out: CL (converted)) of 110 mL/min and a half-life ([1]; iv, 90 mg, Moderate AH, cohort 2A, 90 mg IV infusion, N=3, read-out: T½ (converted)) of 2.7 h. It also gave an AUC(0-inf) [1, 8] of 20400 ng·h/mL, a Cmax [1, 8] of 3290 ng/mL and a Tmax [1, 8] of 2.3 h. It also gave a clearance ([1]; iv, 90 mg, Severe AH, cohort 2B, 90 mg IV infusion, N=4, read-out: CL (converted)) of 91.7 mL/min, a half-life ([1]; iv, 90 mg, Severe AH, cohort 2B, 90 mg IV infusion, N=4, read-out: T½ (converted)) of 5.1 h and an AUC(0-inf) [1, 9] of 27100 ng·h/mL. The Cmax [1, 9] was 6820 ng/mL, the Tmax [1, 9] was 2.1 h and the clearance ([1]; iv, 150 mg, Severe AH, cohort 3B, 150 mg IV infusion, N=4, read-out: CL (converted)) was 96.7 mL/min. For the same compound, the half-life ([1]; iv, 150 mg, Severe AH, cohort 3B, 150 mg IV infusion, N=4, read-out: T½ (converted)) was 3.4 h, the “increase in AUC in AH patients compared to healthy subjects” value [1, 10] was “about 5 fold” and the “increase in Cmax in AH patients compared to healthy subjects” value [1, 10] was 2 fold. The safety / tolerability ([2]; 30, 90, 150 mg) was “safe and well tolerated”, the serious adverse events ([2]; 30, 90, 150 mg) was “no drug-related serious adverse events; also recorded: no treatment emergent serious adverse events; also recorded: no serious adverse effects related to 25HC3S” and the “discontinuations, early withdrawal or termination due to adverse effects” value [2] was “no discontinuations, early withdrawal or termination”.
